The values that follow come from patent US9636418B2 (priority 2013, dated 2017).

In assay [1] the target is hNav1.7 (Homo sapiens, UniProt Q15858). In words: cell-based. Type of assay: cell-based.
Assay [2] has as its target hNav1.4 (Homo sapiens, UniProt P35499). The experiment in a line: cell-based. To be noted: for IC50: PatchXpress, read-out: PX hNav1.4 Tonic IC50.
Setting [3] is: PatchXpress, tonic block, read-out: PX hNav1.7 Tonic IC50.
Where [4] appears, read: PatchXpress, * = at high concentrations compound would wash off slowly or not at all, read-out: PX hNav1.7 Tonic IC50.
[5] abbreviates: * = at high concentrations compound would wash off slowly or not at all.

As a reminder, the IC50 is the midpoint of a concentration-inhibition curve.

“And” between values parts separate entries of the source, which are not always exact repeats. Equal values may be shown once. Read-outs that look alike come from different tables or passages of the source. A value given as a limit tells only on which side of the number the result lay.

Sequence of hNav1.7 (Q15858 whole entry): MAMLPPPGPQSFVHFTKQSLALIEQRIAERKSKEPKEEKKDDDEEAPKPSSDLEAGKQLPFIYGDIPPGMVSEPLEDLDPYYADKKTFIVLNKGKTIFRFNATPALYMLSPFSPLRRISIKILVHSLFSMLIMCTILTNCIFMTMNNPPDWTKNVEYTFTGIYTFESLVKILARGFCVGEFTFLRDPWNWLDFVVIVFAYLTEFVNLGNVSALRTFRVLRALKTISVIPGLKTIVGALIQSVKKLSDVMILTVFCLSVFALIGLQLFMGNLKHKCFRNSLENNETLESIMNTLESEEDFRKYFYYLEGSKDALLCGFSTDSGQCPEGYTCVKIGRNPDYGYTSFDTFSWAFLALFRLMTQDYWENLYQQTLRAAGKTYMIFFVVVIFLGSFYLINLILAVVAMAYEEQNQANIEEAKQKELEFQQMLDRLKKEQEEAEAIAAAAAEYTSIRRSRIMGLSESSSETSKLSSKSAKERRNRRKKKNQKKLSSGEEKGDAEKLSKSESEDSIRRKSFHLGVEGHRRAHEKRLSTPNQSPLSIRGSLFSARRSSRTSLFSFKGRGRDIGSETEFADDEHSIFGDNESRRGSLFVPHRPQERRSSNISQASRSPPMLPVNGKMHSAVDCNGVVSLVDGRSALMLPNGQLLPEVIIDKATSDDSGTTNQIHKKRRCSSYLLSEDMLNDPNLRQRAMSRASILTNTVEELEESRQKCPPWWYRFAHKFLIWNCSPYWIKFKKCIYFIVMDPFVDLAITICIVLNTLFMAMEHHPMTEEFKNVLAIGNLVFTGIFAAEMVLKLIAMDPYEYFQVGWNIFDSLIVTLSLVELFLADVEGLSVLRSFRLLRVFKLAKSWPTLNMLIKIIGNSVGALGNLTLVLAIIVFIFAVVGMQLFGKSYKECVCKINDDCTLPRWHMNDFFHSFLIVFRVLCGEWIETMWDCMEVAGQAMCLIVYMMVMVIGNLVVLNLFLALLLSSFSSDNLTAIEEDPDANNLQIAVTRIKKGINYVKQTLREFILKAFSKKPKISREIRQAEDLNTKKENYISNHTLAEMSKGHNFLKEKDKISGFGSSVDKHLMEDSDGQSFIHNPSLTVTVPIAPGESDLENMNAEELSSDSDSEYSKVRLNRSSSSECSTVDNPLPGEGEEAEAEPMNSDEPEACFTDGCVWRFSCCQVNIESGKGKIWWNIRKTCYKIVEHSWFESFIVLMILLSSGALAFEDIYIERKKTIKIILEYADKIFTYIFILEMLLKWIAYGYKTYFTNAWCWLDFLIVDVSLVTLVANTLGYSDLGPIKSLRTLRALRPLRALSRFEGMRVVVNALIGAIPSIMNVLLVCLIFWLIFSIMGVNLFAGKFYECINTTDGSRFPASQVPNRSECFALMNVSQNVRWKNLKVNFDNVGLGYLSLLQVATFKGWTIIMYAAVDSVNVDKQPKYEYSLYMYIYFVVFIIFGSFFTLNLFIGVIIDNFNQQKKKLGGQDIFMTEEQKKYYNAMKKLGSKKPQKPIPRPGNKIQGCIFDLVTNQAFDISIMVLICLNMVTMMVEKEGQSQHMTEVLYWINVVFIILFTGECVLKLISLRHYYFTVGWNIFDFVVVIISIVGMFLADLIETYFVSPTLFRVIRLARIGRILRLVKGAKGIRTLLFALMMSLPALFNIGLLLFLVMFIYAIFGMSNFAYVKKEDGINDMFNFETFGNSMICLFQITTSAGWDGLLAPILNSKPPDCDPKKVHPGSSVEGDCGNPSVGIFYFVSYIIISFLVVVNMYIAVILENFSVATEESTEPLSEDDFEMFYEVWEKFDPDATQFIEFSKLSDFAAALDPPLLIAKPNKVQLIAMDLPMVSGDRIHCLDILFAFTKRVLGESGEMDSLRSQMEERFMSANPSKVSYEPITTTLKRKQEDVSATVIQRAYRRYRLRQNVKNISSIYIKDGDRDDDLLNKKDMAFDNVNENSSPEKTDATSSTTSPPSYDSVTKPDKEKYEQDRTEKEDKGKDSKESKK
Sequence of hNav1.4 (P35499 whole entry): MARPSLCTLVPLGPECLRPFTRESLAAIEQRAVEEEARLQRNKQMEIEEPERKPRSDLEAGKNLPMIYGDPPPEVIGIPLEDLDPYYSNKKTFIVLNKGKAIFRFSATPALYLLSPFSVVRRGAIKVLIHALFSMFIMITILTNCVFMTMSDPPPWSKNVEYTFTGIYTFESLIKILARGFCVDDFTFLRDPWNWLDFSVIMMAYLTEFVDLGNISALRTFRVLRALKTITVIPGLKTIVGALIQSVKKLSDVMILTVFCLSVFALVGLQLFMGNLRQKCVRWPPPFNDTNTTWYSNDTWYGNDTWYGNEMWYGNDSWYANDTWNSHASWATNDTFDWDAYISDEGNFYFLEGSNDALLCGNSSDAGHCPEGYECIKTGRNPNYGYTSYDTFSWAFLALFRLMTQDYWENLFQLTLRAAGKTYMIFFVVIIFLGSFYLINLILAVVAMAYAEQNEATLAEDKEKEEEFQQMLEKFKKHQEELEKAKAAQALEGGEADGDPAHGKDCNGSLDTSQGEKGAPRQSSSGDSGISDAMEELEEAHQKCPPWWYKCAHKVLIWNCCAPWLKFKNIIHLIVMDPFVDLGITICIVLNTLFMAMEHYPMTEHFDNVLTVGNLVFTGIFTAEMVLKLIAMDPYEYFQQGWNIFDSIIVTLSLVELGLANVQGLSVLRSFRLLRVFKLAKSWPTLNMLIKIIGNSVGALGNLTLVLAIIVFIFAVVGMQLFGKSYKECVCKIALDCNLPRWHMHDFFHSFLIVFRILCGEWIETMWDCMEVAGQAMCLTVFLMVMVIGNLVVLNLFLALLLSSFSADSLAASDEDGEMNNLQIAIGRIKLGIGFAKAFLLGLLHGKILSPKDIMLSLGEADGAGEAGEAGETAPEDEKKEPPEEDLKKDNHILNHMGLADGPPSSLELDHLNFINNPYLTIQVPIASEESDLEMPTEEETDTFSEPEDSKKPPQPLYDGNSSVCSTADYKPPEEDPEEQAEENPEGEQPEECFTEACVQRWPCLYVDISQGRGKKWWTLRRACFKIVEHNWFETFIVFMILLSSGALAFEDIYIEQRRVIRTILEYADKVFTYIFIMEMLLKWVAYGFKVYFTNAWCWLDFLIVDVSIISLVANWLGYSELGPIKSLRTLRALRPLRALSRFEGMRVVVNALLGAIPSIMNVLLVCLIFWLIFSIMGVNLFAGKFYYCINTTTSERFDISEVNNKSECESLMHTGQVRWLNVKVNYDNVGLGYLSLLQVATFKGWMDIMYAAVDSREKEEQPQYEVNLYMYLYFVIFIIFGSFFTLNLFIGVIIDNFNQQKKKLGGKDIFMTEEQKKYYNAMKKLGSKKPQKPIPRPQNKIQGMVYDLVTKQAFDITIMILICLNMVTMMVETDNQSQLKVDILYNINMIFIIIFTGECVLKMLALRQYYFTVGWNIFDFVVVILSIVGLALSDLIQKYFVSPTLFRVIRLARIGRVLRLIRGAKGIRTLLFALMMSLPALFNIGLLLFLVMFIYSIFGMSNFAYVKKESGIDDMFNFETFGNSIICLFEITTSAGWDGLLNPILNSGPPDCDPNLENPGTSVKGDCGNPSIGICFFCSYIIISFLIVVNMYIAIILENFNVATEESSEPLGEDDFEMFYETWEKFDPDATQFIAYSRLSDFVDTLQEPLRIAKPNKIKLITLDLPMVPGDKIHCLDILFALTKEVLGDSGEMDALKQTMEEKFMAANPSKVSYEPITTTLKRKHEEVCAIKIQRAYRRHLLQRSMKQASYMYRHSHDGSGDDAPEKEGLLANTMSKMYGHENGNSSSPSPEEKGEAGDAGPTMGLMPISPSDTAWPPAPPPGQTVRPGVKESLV

Take `C#CC[C@H](N)C(=O)NCCCC[C@@H]1NC(=O)[C@H](CCCNC(=N)N)NC(=O)[C@H](CCCCN)NC(=O)[C@H](CO)NC(=O)[C@H](CC(=O)O)NC(=O)[C@@H]2CSSC[C@@H]3NC(=O)[C@H](CCC(=O)O)NC(=O)[C@H](CC(C)C)NC(=O)CNC(=O)[C@H](CCC(=O)O)NC(=O)[C@H](CSSC[C@H](NC(=O)[C@H](Cc4ccc(O)cc4)NC(=O)[C@@H](N)CC#N)C(=O)N[C@@H](CCC(N)=O)C(=O)N[C@@H](CCCCN)C(=O)N[C@@H](Cc4c[nH]c5ccccc45)C(=O)N[C@@H](CCCC)C(=O)N[C@@H](Cc4c[nH]c5ccccc45)C(=O)N[C@@H]([C@@H](C)O)C(=O)N2)NC(=O)[C@H](CSSC[C@@H](C(=O)N[C@@H](CCCNC(=N)N)C(=O)N[C@@H](CCCCN)C(=O)N[C@H](C(=O)N[C@H](C(N)=O)[C@@H](C)CC)[C@@H](C)CC)NC(=O)[C@H](Cc2c[nH]c4ccccc24)NC(=O)[C@H](CC(C)C)NC(=O)[C@H](CCCCN)NC3=O)NC1=O` [compound 393]: the 50% inhibitory concentration (IC50) in assay [1] (setting [3]) is more than 100 nM; in assay [2] (tonic block), more than 10000 nM.

Take `C#CC[C@H](N)C(=O)NCCCC[C@@H]1NC(=O)[C@H](CCCNC(=N)N)NC(=O)[C@H](CCCCN)NC(=O)[C@H](CO)NC(=O)[C@H](CC(=O)O)NC(=O)[C@@H]2CSSC[C@@H]3NC(=O)[C@H](CCC(=O)O)NC(=O)[C@H](CC(C)C)NC(=O)CNC(=O)[C@H](CCC(=O)O)NC(=O)[C@H](CSSC[C@H](NC(=O)[C@H](Cc4ccc(O)cc4)NC(=O)[C@@H](N)CC#N)C(=O)N[C@@H](CCC(N)=O)C(=O)N[C@@H](CCCCN)C(=O)N[C@@H](Cc4c[nH]c5ccccc45)C(=O)N[C@@H](CCCC)C(=O)N[C@@H](Cc4c[nH]c5ccccc45)C(=O)N[C@@H]([C@@H](C)O)C(=O)N2)NC(=O)[C@H](CSSC[C@@H](C(=O)N[C@@H](CCCNC(=N)N)C(=O)N[C@@H](CCCCN)C(=O)N[C@@H](Cc2ccc(O)cc2)C(=O)N[C@H](C(N)=O)[C@@H](C)CC)NC(=O)[C@H](Cc2c[nH]c4ccccc24)NC(=O)[C@H](CC(C)C)NC(=O)[C@H](CCCCN)NC3=O)NC1=O` [compound 394]: the IC50 was found to be 0.05 nM in assay [1] (setting [3]) and 964 nM in assay [2] (tonic block).

`C#CC[C@@H]1NC(=O)[C@@H]2CSSC[C@H](NC(=O)[C@H](Cc3ccc(O)cc3)NC(=O)[C@@H](N)CC#N)C(=O)N[C@@H](CCC(N)=O)C(=O)N[C@@H](CCCCN)C(=O)N[C@@H](Cc3c[nH]c4ccccc34)C(=O)N[C@@H](CCCC)C(=O)N[C@@H](Cc3c[nH]c4ccccc34)C(=O)N[C@@H]([C@@H](C)O)C(=O)N[C@H]3CSSC[C@H](NC(=O)[C@H](CCC(=O)O)NC(=O)[C@H](CC(C)C)NC(=O)CNC1=O)C(=O)N[C@@H](CCCCN)C(=O)N[C@@H](CC(C)C)C(=O)N[C@@H](Cc1c[nH]c4ccccc14)C(=O)N[C@H](C(=O)N[C@@H](CCCNC(=N)N)C(=O)N[C@@H](CCCCN)C(=O)N[C@@H](Cc1ccc(O)cc1)C(=O)N[C@H](C(N)=O)[C@@H](C)CC)CSSC[C@H](NC(=O)[C@H](C)NC(=O)[C@H](CCCNC(=N)N)NC(=O)[C@H](CCCCN)NC(=O)[C@H](CO)NC(=O)[C@H](CC(=O)O)NC3=O)C(=O)N2` [compound 397]: the concentration for half-maximal inhibition (IC50) in assay [1] (setting [3]) is 87.1 nM; in assay [2] (tonic block), 1760 nM. The Nav1.4/Nav1.7 in assay [2] (ratio of PX tonic IC50 values) was determined as 20.

`CCCC[C@@H]1NC(=O)[C@H](Cc2c[nH]c3ccccc23)NC(=O)[C@H](CCCCN)NC(=O)[C@H](CCC(N)=O)NC(=O)[C@@H](NC(=O)[C@@H](N)Cc2ccc(O)cc2)CSSC[C@@H]2NC(=O)[C@@H]3CSSC[C@@H](C(=O)N[C@@H](CCCNC(=N)N)C(=O)N[C@@H](CCCCN)C(=O)N[C@@H](CCC(=O)O)C(=O)N[C@H](C(N)=O)[C@@H](C)CC)NC(=O)[C@H](Cc4c[nH]c5ccccc45)NC(=O)[C@H](CC(C)C)NC(=O)[C@H](CCCCN)NC(=O)[C@H](CSSC[C@H](NC(=O)[C@H]([C@@H](C)O)NC(=O)[C@H](Cc4c[nH]c5ccccc45)NC1=O)C(=O)N[C@@H](CC(=O)O)C(=O)N[C@@H](CO)C(=O)N[C@@H](CCCCN)C(=O)N[C@@H](CCCNC(=N)N)C(=O)N[C@@H](C)C(=O)N3)NC(=O)[C@H](CCCNC(=N)N)NC(=O)[C@H](CC(C)C)NC(=O)CNC(=O)[C@H](Cc1cn(CCCOCCOCCOCCOCCOCCOCCOCCOCCOCCOCCN)nn1)NC2=O` [compound 406]: the concentration for half-maximal inhibition (IC50) worked out at 5.88 nM in assay [1] (setting [4]) and 65.9 nM in assay [2] (setting [5]). Besides, the Nav1.4/Nav1.7 in assay [2] (ratio of PX IC50 values) was 11.

For the compound `CCCC[C@@H]1NC(=O)[C@H](Cc2c[nH]c3ccccc23)NC(=O)[C@H](CCCCN)NC(=O)[C@H](CCC(N)=O)NC(=O)[C@@H](NC(=O)[C@@H](N)Cc2cn(CCCOCCOCCOCCOCCOCCOCCOCCOCCOCCOCCN)nn2)CSSC[C@@H]2NC(=O)[C@@H]3CSSC[C@@H](C(=O)N[C@@H](CCCNC(=N)N)C(=O)N[C@@H](CCCCN)C(=O)N[C@H](C(=O)N[C@H](C(N)=O)[C@@H](C)CC)[C@@H](C)CC)NC(=O)[C@H](Cc4c[nH]c5ccccc45)NC(=O)[C@H](CC(C)C)NC(=O)[C@H](CCCCN)NC(=O)[C@H](CSSC[C@H](NC(=O)[C@H]([C@@H](C)O)NC(=O)[C@H](Cc4c[nH]c5ccccc45)NC1=O)C(=O)N[C@@H](CC(=O)O)C(=O)N[C@@H](CO)C(=O)N[C@@H](CCCCN)C(=O)N[C@@H](CCCNC(=N)N)C(=O)N[C@@H](C)C(=O)N3)NC(=O)[C@H](CCC(=O)O)NC(=O)[C@H](CC(C)C)NC(=O)CNC(=O)[C@H](CCC(=O)O)NC2=O` [compound 407], the half-inhibitory concentration (IC50) was found to be 6.48 nM in assay [1] (setting [4]) and 549 nM in assay [2] (setting [5]).

With `C#CC[C@H](N)C(=O)NCCCC[C@@H]1NC(=O)[C@H](CCCNC(=N)N)NC(=O)[C@H](CCCCN)NC(=O)[C@H](CO)NC(=O)[C@H](CC(=O)O)NC(=O)[C@@H]2CSSC[C@@H]3NC(=O)[C@H](CCC(=O)O)NC(=O)[C@H](CC(C)C)NC(=O)CNC(=O)[C@H](CCC(=O)O)NC(=O)[C@H](CSSC[C@H](NC(=O)[C@H](Cc4ccc(O)cc4)NC(=O)[C@@H](N)CCC)C(=O)N[C@@H](CCC(N)=O)C(=O)N[C@@H](CCCCN)C(=O)N[C@@H](Cc4c[nH]c5ccccc45)C(=O)N[C@@H](CCCC)C(=O)N[C@@H](Cc4c[nH]c5ccccc45)C(=O)N[C@@H]([C@@H](C)O)C(=O)N2)NC(=O)[C@H](CSSC[C@@H](C(=O)N[C@@H](CCCNC(=N)N)C(=O)N[C@@H](CCCCN)C(=O)N[C@H](C(=O)N[C@@H](Cc2c[nH]c4ccccc24)C(N)=O)[C@@H](C)CC)NC(=O)[C@H](Cc2c[nH]c4ccccc24)NC(=O)[C@H](CC(C)C)NC(=O)[C@H](CCCCN)NC3=O)NC1=O` [compound 437], the concentration for half-maximal inhibition (IC50) in assay [1] (setting [3]) worked out at 9.59 nM.

Regarding `C#CC[C@H](N)C(=O)NCCCC[C@@H]1NC(=O)[C@H](CCCNC(=N)N)NC(=O)[C@H](CCCCN)NC(=O)[C@H](CO)NC(=O)[C@H](CC(=O)O)NC(=O)[C@@H]2CSSC[C@@H]3NC(=O)[C@H](CCCNC(=N)N)NC(=O)[C@H](CC(C)C)NC(=O)CNC(=O)[C@H](CCC(=O)O)NC(=O)[C@H](CSSC[C@H](NC(=O)[C@H](Cc4ccc(O)cc4)NC(=O)[C@@H](N)CCC)C(=O)N[C@@H](CCC(N)=O)C(=O)N[C@@H](CCCCN)C(=O)N[C@@H](Cc4c[nH]c5ccccc45)C(=O)N[C@@H](CC(C)C)C(=O)N[C@@H](Cc4c[nH]c5ccccc45)C(=O)N[C@@H]([C@@H](C)O)C(=O)N2)NC(=O)[C@H](CSSC[C@@H](C(=O)N[C@@H](CCCNC(=N)N)C(=O)N[C@@H](CCCCN)C(=O)N[C@@H](CCC(=O)O)C(=O)N[C@H](C(N)=O)[C@@H](C)CC)NC(=O)[C@H](Cc2c[nH]c4ccccc24)NC(=O)[C@H](CC(C)C)NC(=O)[C@H](CCCCN)NC3=O)NC1=O` [compound 439], in assay [1] (setting [3]), the IC50 was 1.04 nM and 1.37 nM and 0.384 nM and 0.612 nM.

For the compound `C#CC[C@H](N)C(=O)NCCCC[C@@H]1NC(=O)[C@H](CCCNC(=N)N)NC(=O)[C@H](CCCCN)NC(=O)[C@H](CO)NC(=O)[C@H](CC(=O)O)NC(=O)[C@@H]2CSSC[C@@H]3NC(=O)[C@H](CCC(=O)O)NC(=O)[C@H](CC(C)C)NC(=O)CNC(=O)[C@H](CCC(=O)O)NC(=O)[C@H](CSSC[C@H](NC(=O)[C@H](Cc4ccc(O)cc4)NC(=O)[C@@H](N)CCC)C(=O)N[C@@H](CCC(N)=O)C(=O)N[C@@H](CCCCN)C(=O)N[C@@H](Cc4c[nH]c5ccccc45)C(=O)N[C@@H](CC(C)C)C(=O)N[C@@H](Cc4c[nH]c5ccccc45)C(=O)N[C@@H]([C@@H](C)O)C(=O)N2)NC(=O)[C@H](CSSC[C@@H](C(=O)N[C@@H](CCCNC(=N)N)C(=O)N[C@@H](CCCCN)C(=O)N[C@@H](Cc2ccc(O)cc2)C(=O)N[C@H](C(N)=O)[C@@H](C)CC)NC(=O)[C@H](Cc2c[nH]c4ccccc24)NC(=O)[C@H](CC(C)C)NC(=O)[C@H](CCCCN)NC3=O)NC1=O` [compound 440], the half-inhibitory concentration (IC50) in assay [1] (setting [3]) came to 1.95 nM.

`C#CC[C@H](N)C(=O)NCCCC[C@@H]1NC(=O)[C@H](CCCNC(=N)N)NC(=O)[C@H](CCCCN)NC(=O)[C@H](CO)NC(=O)[C@H](CC(=O)O)NC(=O)[C@@H]2CSSC[C@@H]3NC(=O)[C@H](CCC(=O)O)NC(=O)[C@H](CC(C)C)NC(=O)CNC(=O)[C@H](CCC(=O)O)NC(=O)[C@H](CSSC[C@H](NC(=O)[C@H](Cc4ccc(O)cc4)NC(=O)[C@@H](N)CCC)C(=O)N[C@@H](CCC(N)=O)C(=O)N[C@@H](CCCCN)C(=O)N[C@@H](Cc4c[nH]c5ccccc45)C(=O)N[C@@H](CC(C)C)C(=O)N[C@@H](Cc4c[nH]c5ccccc45)C(=O)N[C@@H]([C@@H](C)O)C(=O)N2)NC(=O)[C@H](CSSC[C@@H](C(=O)N[C@@H](CCCNC(=N)N)C(=O)N[C@@H](CCCCN)C(=O)N[C@H](C(=O)N[C@@H](Cc2c[nH]c4ccccc24)C(N)=O)[C@@H](C)CC)NC(=O)[C@H](Cc2c[nH]c4ccccc24)NC(=O)[C@H](CC(C)C)NC(=O)[C@H](CCCCN)NC3=O)NC1=O` [compound 441]: in assay [1] (setting [3]), the IC50 was 10.4 nM.

For the compound [1-Nal7]JzTx-V(1-29) [SEQ ID NO: 30], in assay [1], the “hNav1.7 potency/activity compared with wild type JzTx-V” value was “retained hNav1.7 activity similar to the wild type peptide”.

For the compound [1-Nal24]JzTx-V(1-29) [SEQ ID NO: 43], the “hNav1.7 potency/activity compared with wild type JzTx-V” value in assay [1] is “loses considerable activity against hNav1.7”.

As for “[Phe6,Atz(500 Da EtO-PEG*-{[Phe6,Atz13*]GpTx-1(1-34)})13]GpTx-1(1-34) [Homodimeric Conjugate No. 4]”, the Wash out entry in assay [1] is “Yes”. The half-maximal inhibitory concentration (IC50) in assay [1] (read-out: Nav1.7 PX IC50) worked out at 19 nM.
